Test results published in US8642587B2, “Heterocyclic compounds, pharmaceutical compositions containing them, and their use in therapy” (AbbVie Deutschland GmbH & Co. KG, priority 2009, dated 2014).
Counter-ions that a name gives are not always drawn.

Target: T1, human GlyT1c transporter (Homo sapiens, UniProt P48067)
T1 construct: expressed in transfected cells; host or cells: CHO cells (recombinant; membranes)
T1 sequence (P48067 1-706): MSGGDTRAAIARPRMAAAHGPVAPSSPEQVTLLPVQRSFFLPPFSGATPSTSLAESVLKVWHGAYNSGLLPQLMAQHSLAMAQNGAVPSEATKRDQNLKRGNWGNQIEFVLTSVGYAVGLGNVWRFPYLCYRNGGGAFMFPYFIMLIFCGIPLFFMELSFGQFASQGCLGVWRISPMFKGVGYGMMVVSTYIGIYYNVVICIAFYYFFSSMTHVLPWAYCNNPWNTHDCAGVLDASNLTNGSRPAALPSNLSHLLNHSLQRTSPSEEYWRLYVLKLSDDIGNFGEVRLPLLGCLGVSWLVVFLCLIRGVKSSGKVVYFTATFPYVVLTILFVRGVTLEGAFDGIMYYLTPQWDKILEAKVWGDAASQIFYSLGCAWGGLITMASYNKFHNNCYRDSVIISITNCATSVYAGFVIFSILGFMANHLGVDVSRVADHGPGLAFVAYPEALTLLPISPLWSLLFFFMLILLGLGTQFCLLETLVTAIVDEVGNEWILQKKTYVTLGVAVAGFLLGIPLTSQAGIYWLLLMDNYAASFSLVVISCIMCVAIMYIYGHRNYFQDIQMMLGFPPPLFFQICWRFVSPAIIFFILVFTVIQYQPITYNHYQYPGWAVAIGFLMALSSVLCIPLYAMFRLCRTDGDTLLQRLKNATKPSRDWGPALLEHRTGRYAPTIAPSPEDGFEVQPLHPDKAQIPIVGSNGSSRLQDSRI
Assay: Radioligand binding assay using recombinant CHO cell membranes expressing human GlyT1
Conditions: values given as bounds, read-out: radioligand binding K^iapp
Protocol: Radioligand binding to human GlyT1c transporter-expressing membranes was carried out as described in Mezler et al., Molecular Pharmacology 74:1705-1715, 2008.

Row | Ki | Structure (SMILES)
1 | ≥ 10000 nM | NCCn1cc2c(n1)C(C1(c3ccc(Cl)cc3)CCC1)NCC2 (stereo not drawn) [Example 6, 2-(7-(1-(4-Chlorophenyl)cyclobutyl)-4,5,6,7-tetrahydro-2H-pyrazolo[3,4-c]pyridin-2-yl)ethanamine dihydrochloride]
2 | ≤ 1000 nM | CCCS(=O)(=O)NCCn1ncc2c1C(C1(c3ccc(Cl)cc3)CCC1)NCC2 (stereo not drawn) [Example 7.1, N-(2-(7-(1-(4-Chlorophenyl)cyclobutyl)-4,5,6,7-tetrahydro-1H-pyrazolo[3,4-c]pyridin-1-yl)ethyl)propane-1-sulfonamide hydrochloride]
3 | ≤ 10000 nM | Cn1cc(S(=O)(=O)NCCn2ncc3c2C(C2(c4ccc(Cl)cc4)CCC2)NCC3)cn1 (stereo not drawn) [Example 7.2, N-(2-(7-(1-(4-Chlorophenyl)cyclobutyl)-4,5,6,7-tetrahydro-1H-pyrazolo[3,4-c]pyridin-1-yl)ethyl)-1-methyl-1H-pyrazole-4-sulfonamide hydrochloride]
4 | ≤ 1000 nM | O=S(=O)(CCCF)NCCn1ncc2c1C(C1(c3ccc(Cl)cc3)CCC1)NCC2 (stereo not drawn) [Example 7.3, N-(2-(7-(1-(4-Chlorophenyl)cyclobutyl)-4,5,6,7-tetrahydro-1H-pyrazolo[3,4-c]pyridin-1-yl)ethyl)-3-fluoropropane-1-sulfonamide hydrochloride]
5 | ≤ 1000 nM | Cn1cnc(S(=O)(=O)NCCn2ncc3c2C(C2(c4ccc(Cl)cc4)CCC2)NCC3)c1 (stereo not drawn) [Example 7.4, N-(2-(7-(1-(4-Chlorophenyl)cyclobutyl)-4,5,6,7-tetrahydro-1H-pyrazolo[3,4-c]pyridin-1-yl)ethyl)-1-methyl-1H-imidazole-4-sulfonamide hydrochloride]
6 | ≤ 1000 nM | CCCS(=O)(=O)NCc1ncc2c(n1)C(C1(c3ccc(Cl)cc3)CCC1)NCC2 (stereo not drawn) [Example 8.1, N-((8-(1-(4-Chlorophenyl)cyclobutyl)-5,6,7,8-tetrahydropyrido[3,4-d]pyrimidin-2-yl)methyl)propane-1-sulfonamide hydrochloride]
7 | ≤ 1000 nM | O=S(=O)(CC1CC1)NCc1ncc2c(n1)C(C1(c3ccc(Cl)cc3)CCC1)NCC2 (stereo not drawn) [Example 8.2, N-((8-(1-(4-Chlorophenyl)cyclobutyl)-5,6,7,8-tetrahydropyrido[3,4-d]pyrimidin-2-yl)methyl)-1-cyclopropylmethanesulfonamide hydrochloride]
8 | ≤ 1000 nM | Cn1cc(S(=O)(=O)NCc2ncc3c(n2)C(C2(c4ccc(Cl)cc4)CCC2)NCC3)cn1 (stereo not drawn) [Example 8.3, N-((8-(1-(4-Chlorophenyl)cyclobutyl)-5,6,7,8-tetrahydropyrido[3,4-d]pyrimidin-2-yl)methyl)-1-methyl-1H-pyrazole-4-sulfonamide hydrochloride]
9 | ≤ 1000 nM | Cn1cnc(S(=O)(=O)NCc2ncc3c(n2)C(C2(c4ccc(Cl)cc4)CCC2)NCC3)c1 (stereo not drawn) [Example 8.4, N-((8-(1-(4-Chlorophenyl)cyclobutyl)-5,6,7,8-tetrahydropyrido[3,4-d]pyrimidin-2-yl)methyl)-1-methyl-1H-imidazole-4-sulfonamide hydrochloride]
10 | ≤ 1000 nM | O=S(=O)(CCCF)NCc1ncc2c(n1)C(C1(c3ccc(Cl)cc3)CCC1)NCC2 (stereo not drawn) [Example 8.5, N-((8-(1-(4-Chlorophenyl)cyclobutyl)-5,6,7,8-tetrahydropyrido[3,4-d]pyrimidin-2-yl)methyl)-3-fluoropropane-1-sulfonamide hydrochloride]
11 | ≤ 1000 nM | CCCS(=O)(=O)NCCn1cc2c(n1)C(C1(c3ccc(Cl)cc3)CCC1)NCC2 (stereo not drawn) [Example 9.1, N-(2-(7-(1-(4-Chlorophenyl)cyclobutyl)-4,5,6,7-tetrahydro-2H-pyrazolo[3,4-c]pyridin-2-yl)ethyl)propane-1-sulfonamide hydrochloride]
12 | ≤ 10000 nM | CCS(=O)(=O)NCCn1cc2c(n1)C(C1(c3ccc(Cl)cc3)CCC1)NCC2 (stereo not drawn) [Example 9.2, N-(2-(7-(1-(4-Chlorophenyl)cyclobutyl)-4,5,6,7-tetrahydro-2H-pyrazolo[3,4-c]pyridin-2-yl)ethyl)ethanesulfonamide hydrochloride]
13 | ≤ 1000 nM | CS(=O)(=O)NCCn1cc2c(n1)C(C1(c3ccc(Cl)cc3)CCC1)NCC2 (stereo not drawn) [Example 9.3, N-(2-(7-(1-(4-Chlorophenyl)cyclobutyl)-4,5,6,7-tetrahydro-2H-pyrazolo[3,4-c]pyridin-2-yl)ethyl)methanesulfonamide hydrochloride]
14 | ≤ 1000 nM | O=S(=O)(NCCn1cc2c(n1)C(C1(c3ccc(Cl)cc3)CCC1)NCC2)c1ccccc1 (stereo not drawn) [Example 9.4, N-(2-(7-(1-(4-Chlorophenyl)cyclobutyl)-4,5,6,7-tetrahydro-2H-pyrazolo[3,4-c]pyridin-2-yl)ethyl)benzenesulfonamide hydrochloride]
15 | ≤ 1000 nM | CCCCS(=O)(=O)NCCn1cc2c(n1)C(C1(c3ccc(Cl)cc3)CCC1)NCC2 (stereo not drawn) [Example 9.5, N-(2-(7-(1-(4-Chlorophenyl)cyclobutyl)-4,5,6,7-tetrahydro-2H-pyrazolo[3,4-c]pyridin-2-yl)-ethyl)butane-1-sulfonamide hydrochloride]
16 | ≤ 1000 nM | Cn1cc(S(=O)(=O)NCCn2cc3c(n2)C(C2(c4ccc(Cl)cc4)CCC2)NCC3)cn1 (stereo not drawn) [Example 9.6, N-(2-(7-(1-(4-Chlorophenyl)cyclobutyl)-4,5,6,7-tetrahydro-2H-pyrazolo[3,4-c]pyridin-2-yl)-ethyl)-1-methyl-1H-pyrazole-4-sulfonamide hydrochloride]
17 | ≤ 1000 nM | Cn1cnc(S(=O)(=O)NCCn2cc3c(n2)C(C2(c4ccc(Cl)cc4)CCC2)NCC3)c1 (stereo not drawn) [Example 9.7, N-(2-(7-(1-(4-Chlorophenyl)cyclobutyl)-4,5,6,7-tetrahydro-2H-pyrazolo[3,4-c]pyridin-2-yl)ethyl)-1-methyl-1H-imidazole-4-sulfonamide hydrochloride]
18 | ≤ 1000 nM | O=S(=O)(CCCF)NCCn1cc2c(n1)C(C1(c3ccc(Cl)cc3)CCC1)NCC2 (stereo not drawn) [Example 9.8, N-(2-(7-(1-(4-Chlorophenyl)cyclobutyl)-4,5,6,7-tetrahydro-2H-pyrazolo[3,4-c]pyridin-2-yl)ethyl)-3-fluoropropane-1-sulfonamide hydrochloride]
19 | ≤ 1000 nM | O=S(=O)(NCCn1cc2c(n1)C(C1(c3ccc(Cl)cc3)CCC1)NCC2)C1CCC1 (stereo not drawn) [Example 9.9, N-(2-(7-(1-(4-Chlorophenyl)cyclobutyl)-4,5,6,7-tetrahydro-2H-pyrazolo[3,4-c]pyridin-2-yl)-ethyl)cyclobutanesulfonamide hydrochloride]
20 | ≤ 1000 nM | O=S(=O)(CC1CC1)NCCn1cc2c(n1)C(C1(c3ccc(Cl)cc3)CCC1)NCC2 (stereo not drawn) [Example 9.10, N-(2-(7-(1-(4-Chlorophenyl)cyclobutyl)-4,5,6,7-tetrahydro-2H-pyrazolo[3,4-c]pyridin-2-yl)-ethyl)-1-cyclopropylmethanesulfonamide hydrochloride]
21 | ≤ 1000 nM | CC(C)CS(=O)(=O)NCCn1cc2c(n1)C(C1(c3ccc(Cl)cc3)CCC1)NCC2 (stereo not drawn) [Example 9.11, N-(2-(7-(1-(4-chlorophenyl)cyclobutyl)-4,5,6,7-tetrahydro-2H-pyrazolo[3,4-c]pyridin-2-yl)ethyl)-2-methylpropane-1-sulfonamide hydrochloride]
22 | ≤ 1000 nM | O=S(=O)(NCCn1cc2c(n1)C(C1(c3ccc(Cl)cc3)CCC1)NCC2)c1cccnc1 (stereo not drawn) [Example 9.12, N-(2-(7-(1-(4-Chlorophenyl)cyclobutyl)-4,5,6,7-tetrahydro-2H-pyrazolo[3,4-c]pyridin-2-yl)ethyl)pyridine-3-sulfonamide dihydrochloride]
23 | ≤ 1000 nM | CCCS(=O)(=O)N(C)CCn1cc2c(n1)C(C1(c3ccc(Cl)cc3)CCC1)NCC2 (stereo not drawn) [Example 10, N-(2-(7-(1-(4-chlorophenyl)cyclobutyl)-4,5,6,7-tetrahydro-2H-pyrazolo[3,4-c]pyridin-2-yl)ethyl)-N-methylpropane-1-sulfonamide hydrochloride]
24 | ≤ 1000 nM | CCCS(=O)(=O)NCCn1c2c(c3ccccc31)CCNC2C1(c2ccc(Cl)cc2)CCC1 (stereo not drawn) [Example 11, N-(2-{1-[1-(4-Chlorophenyl)cyclobutyl]-1,2,3,4-tetrahydro-9H-b-carbolin-9-yl}ethyl)propane-1-sulfonamide]
